Reference: publication PMC7162861, “Synthesis, cytotoxicity, pharmacokinetic profile, binding with DNA and BSA of new imidazo[1,2-a]pyrazine-benzo[d]imidazol-5-yl hybrids” (Scientific Reports, 2020)

Columns and labels:
CCRF-CEM = test: NCI cytotoxicity screen, Leukemia panel; type: cell-based
Protocol: (§1) Cytotoxicity was performed at National Cancer Institute (NCI), Bethesda, USA as per their protocols.

HL-60(TB) = test: NCI cytotoxicity screen, Leukemia panel; type: cell-based
Protocol: as §1

MOLT-4 = test: NCI cytotoxicity screen, Leukemia panel; type: cell-based; conditions: MOLT-4
Protocol: as §1

SR = test: NCI cytotoxicity screen, Leukemia panel; type: cell-based
Protocol: as §1

A549/ATCC = test: NCI cytotoxicity screen, Non-Small Cell Lung Cancer panel; type: cell-based
Protocol: as §1

EXVX = test: as above; type: cell-based; conditions: Homo sapiens
Protocol: as §1

HOP-62 = test: as above; type: cell-based
Protocol: as §1

HOP-92 = test: as above; type: cell-based
Protocol: as §1

NCI-H460 = test: as above; type: cell-based
Protocol: as §1

NCI-522 = test: as above; type: cell-based, human
Protocol: as §1

NCI-H226 = test: as above; type: cell-based, human
Protocol: as §1

NCI-H23 = test: as above; type: cell-based, human; conditions: five dose 0.01–100 µM
Protocol: as §1

NCI-H322M = test: as above; type: cell-based, human
Protocol: as §1

HCC-2998 = test: NCI cytotoxicity screen, Colon Cancer panel; type: cell-based, human
Protocol: as §1

KM12 = test: NCI cytotoxicity screen, Colon Cancer panel; type: cell-based, human; conditions: five dose 0.01–100 µM
Protocol: as §1

SW-620 = test: NCI cytotoxicity screen, Colon Cancer panel; type: cell-based, human; conditions: five dose 0.01–100 µM
Protocol: as §1

LOX IMVI = test: NCI cytotoxicity screen, Melanoma panel; type: cell-based, human
Protocol: as §1

M14 = test: NCI cytotoxicity screen, Melanoma panel; type: cell-based, human
Protocol: as §1

UACC-62 = test: NCI cytotoxicity screen, Melanoma panel; type: cell-based, human; conditions: five dose 0.01–100 µM
Protocol: as §1

IGROV1 = test: NCI cytotoxicity screen, Ovarian Cancer panel; type: cell-based; conditions: Homo sapiens, IGROV-1, five dose 0.01–100 µM
Protocol: as §1

NCI/ADR-RES = test: NCI cytotoxicity screen, Ovarian Cancer panel; type: cell-based
Protocol: as §1

OVCAR-4 = test: NCI cytotoxicity screen, Ovarian Cancer panel; type: cell-based
Protocol: as §1

OVCAR-5 = test: NCI cytotoxicity screen, Ovarian Cancer panel; type: cell-based; conditions: Homo sapiens
Protocol: as §1

OVCAR-8 = test: NCI cytotoxicity screen, Ovarian Cancer panel; type: cell-based
Protocol: as §1

SK-OV-3 = test: NCI cytotoxicity screen, Ovarian Cancer panel; type: cell-based
Protocol: as §1

OVCAR-3 = test: NCI cytotoxicity screen, Ovarian Cancer panel; type: cell-based, human
Protocol: as §1

786-0 = test: NCI cytotoxicity screen, Renal Cancer panel; type: cell-based, human; conditions: five dose 0.01–100 µM
Protocol: as §1

TK-10 = test: NCI cytotoxicity screen, Renal Cancer panel; type: cell-based, human; conditions: five dose 0.01–100 µM
Protocol: as §1

A498 = test: NCI cytotoxicity screen, Renal Cancer panel; type: cell-based
Protocol: as §1

ACHN = test: NCI cytotoxicity screen, Renal Cancer panel; type: cell-based
Protocol: as §1

CAKI-1 = test: NCI cytotoxicity screen, Renal Cancer panel; type: cell-based
Protocol: as §1

RXF 393 = test: NCI cytotoxicity screen, Renal Cancer panel; type: cell-based
Protocol: as §1

SN12C = test: NCI cytotoxicity screen, Renal Cancer panel; type: cell-based
Protocol: as §1

UO-31 = test: NCI cytotoxicity screen, Renal Cancer panel; type: cell-based
Protocol: as §1

DU-145 = test: NCI cytotoxicity screen, Prostate Cancer panel; type: cell-based, human
Protocol: as §1

PC-3 = test: NCI cytotoxicity screen, Prostate Cancer panel; type: cell-based, human; conditions: five dose 0.01–100 µM
Protocol: as §1

BT-549 = test: NCI cytotoxicity screen, Breast Cancer panel; type: cell-based
Protocol: as §1

HS 578 T = test: NCI cytotoxicity screen, Breast Cancer panel; type: cell-based
Protocol: as §1

MCF7 = test: NCI cytotoxicity screen, Breast Cancer panel; type: cell-based
Protocol: as §1

MDA-MB-231/ATCC = test: NCI cytotoxicity screen, Breast Cancer panel; type: cell-based
Protocol: as §1

MDA-MB-468 = test: NCI cytotoxicity screen, Breast Cancer panel; type: cell-based; conditions: Homo sapiens, five dose 0.01–100 µM
Protocol: as §1

T-47D = test: NCI cytotoxicity screen, Breast Cancer panel; type: cell-based
Protocol: as §1

[1] = Experimental log P, shake-flask method; type: physicochemical; conditions: n-octanol/phosphate buffer pH 7.4, read-out: Exp. Log P
Method in brief: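 Shake-flask partitioning between n-octanol and phosphate buffer pH 7.4, shaken 50 min, then centrifuged 35 min at 2500 rpm. Buffer-phase absorbance at each compound's λmax measured before and after partitioning. P calculated from absorbance drop and phase volume ratio.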

[2] = Homo sapiens, five dose 0.01–100 µM, read-out: LC50 (the source's name)
[3] = Homo sapiens, read-out: Percent growth inhibition

c1cn2cc(-c3ccc4ncn(C5CCCCC5)c4c3)nc(-c3ccc4c(c3)ncn4C3CCCCC3)c2n1 [Compound 31, 8-(1-cyclohexyl-1H-benzo[d]imidazol-5-yl)-6-(1-cyclohexyl-1H-benzo[d]imidazol-6-yl)imidazo[1,2-a]pyrazine]
GI50 (CCRF-CEM; Homo sapiens): 1690 nM | CC50 (CCRF-CEM; [2]): > 1000 nM | inhibition at 10 µM (CCRF-CEM; [3]): 95.7% | TGI (CCRF-CEM; five dose 0.01–100 µM): 6080 nM | TGI (HL-60(TB); HL-60(TB), five dose 0.01–100 µM): 4570 nM | GI50 (HL-60(TB); Homo sapiens, HL-60): 1840 nM | CC50 (HL-60(TB); Homo sapiens, HL-60(TB), five dose 0.01–100 µM, read-out: LC50 (the source's name)): > 1000 nM | GI50 (MOLT-4; Homo sapiens): 1640 nM | CC50 (MOLT-4; [2]): > 1000 nM | TGI (MOLT-4; five dose 0.01–100 µM): 5220 nM | GI50 (SR; Homo sapiens): 2870 nM | CC50 (SR; [2]): > 1000 nM | inhibition at 10 µM (SR; [3]): 97.5% | TGI (SR; five dose 0.01–100 µM): >1000 nM | TGI (A549/ATCC; A549/ATCC, five dose 0.01–100 µM): 3540 nM | GI50 (A549/ATCC; Homo sapiens, A549): 1940 nM | CC50 (A549/ATCC; Homo sapiens, A549/ATCC, five dose 0.01–100 µM, read-out: LC50 (the source's name)): 6460 nM | GI50 (EXVX): 1970 nM | GI50 (HOP-62; Homo sapiens): 2000 nM | CC50 (HOP-62; [2]): 6900 nM | TGI (HOP-62; five dose 0.01–100 µM): 3720 nM | GI50 (HOP-92; Homo sapiens): 1540 nM | LC50 (HOP-92; Homo sapiens, five dose 0.01–100 µM): 6730 nM | TGI (HOP-92; five dose 0.01–100 µM): 3220 nM | GI50 (NCI-H460; Homo sapiens): 1980 nM | CC50 (NCI-H460; [2]): 8160 nM | TGI (NCI-H460; five dose 0.01–100 µM): 4020 nM | GI50 (NCI-522; Homo sapiens): 1740 nM | TGI (NCI-522; NCI-522, five dose 0.01–100 µM): 3400 nM | GI50 (NCI-H226; Homo sapiens): 1690 nM | TGI (NCI-H226; five dose 0.01–100 µM): 3790 nM | GI50 (NCI-H23; Homo sapiens): 2010 nM | TGI (NCI-H23): 4090 nM | GI50 (NCI-H322M; Homo sapiens): 1910 nM | inhibition at 10 µM (NCI-H322M; Homo sapiens, single dose 10 µM, negative = lethal, read-out: Percent growth inhibition): 98.8% | TGI (NCI-H322M; five dose 0.01–100 µM): 4140 nM | TGI (HCC-2998; HCC-2998, five dose 0.01–100 µM): 3460 nM | GI50 (HCC-2998; Homo sapiens, HCC 2998): 1810 nM | GI50 (KM12; Homo sapiens): 2010 nM | TGI (KM12): 3830 nM | GI50 (SW-620; Homo sapiens): 2080 nM | TGI (SW-620): 3970 nM | GI50 (LOX IMVI; Homo sapiens): 1680 nM | TGI (LOX IMVI; five dose 0.01–100 µM): 3220 nM | GI50 (M14; Homo sapiens): 1770 nM | TGI (M14; five dose 0.01–100 µM): 3650 nM | GI50 (UACC-62; Homo sapiens): 1700 nM | TGI (UACC-62): 3360 nM | GI50 (IGROV1): 2040 nM | GI50 (NCI/ADR-RES; Homo sapiens): 2340 nM | CC50 (NCI/ADR-RES; [2]): > 1000 nM | inhibition at 10 µM (NCI/ADR-RES; [3]): 98.9% | TGI (NCI/ADR-RES; five dose 0.01–100 µM): 7330 nM | GI50 (OVCAR-4; Homo sapiens, OVCAR-4): 2170 nM | inhibition at 10 µM (OVCAR-4; Homo sapiens, OVCAR-4, read-out: Percent growth inhibition): 97.2% | CC50 (OVCAR-4; Homo sapiens, OVCAR-4, five dose 0.01–100 µM, read-out: LC50 (the source's name)): > 1000 nM | TGI (OVCAR-4; OVCAR-4, five dose 0.01–100 µM): 6300 nM | GI50 (OVCAR-5): 2430 nM | CC50 (OVCAR-5; five dose 0.01–100 µM, read-out: LC50 (the source's name)): > 1000 nM | GI50 (OVCAR-8; Homo sapiens): 2550 nM | CC50 (OVCAR-8; [2]): > 1000 nM | TGI (OVCAR-8; five dose 0.01–100 µM): 9490 nM | GI50 (SK-OV-3; Homo sapiens): 2270 nM | CC50 (SK-OV-3; [2]): 7420 nM | TGI (SK-OV-3; five dose 0.01–100 µM): 4100 nM | GI50 (OVCAR-3; Homo sapiens, OVCAR-3): 1830 nM | CC50 (OVCAR-3; Homo sapiens, OVCAR-3, read-out: LC50): 6200 nM | TGI (OVCAR-3; OVCAR-3, five dose 0.01–100 µM): 3360 nM | GI50 (786-0; Homo sapiens): 1730 nM | TGI (786-0): 3470 nM | GI50 (TK-10; Homo sapiens): 2020 nM | TGI (TK-10): 3650 nM | GI50 (A498; Homo sapiens): 1770 nM | CC50 (A498; [2]): 5850 nM | TGI (A498; five dose 0.01–100 µM): 3220 nM | GI50 (ACHN; Homo sapiens): 1680 nM | CC50 (ACHN; [2]): 5610 nM | TGI (ACHN; five dose 0.01–100 µM): 3070 nM | TGI (CAKI-1; CAKI-1, five dose 0.01–100 µM): 2950 nM | GI50 (CAKI-1; Homo sapiens, CAKI-1): 1460 nM | inhibition at 10 µM (CAKI-1; Homo sapiens, CAKI-1, read-out: Percent growth inhibition): 82.8% | CC50 (CAKI-1; Homo sapiens, CAKI-1, five dose 0.01–100 µM, read-out: LC50 (the source's name)): 5970 nM | GI50 (RXF 393; Homo sapiens): 1510 nM | CC50 (RXF 393; [2]): 5940 nM | TGI (RXF 393; five dose 0.01–100 µM): 2990 nM | GI50 (SN12C; Homo sapiens): 2050 nM | CC50 (SN12C; [2]): > 1000 nM | TGI (SN12C; five dose 0.01–100 µM): 4530 nM | GI50 (UO-31; Homo sapiens): 1490 nM | CC50 (UO-31; [2]): 5460 nM | TGI (UO-31; five dose 0.01–100 µM): 2850 nM | GI50 (DU-145; Homo sapiens): 1770 nM | TGI (DU-145; five dose 0.01–100 µM): 3280 nM | GI50 (PC-3; Homo sapiens): 1700 nM | TGI (PC-3): 3930 nM | GI50 (BT-549; Homo sapiens): 1940 nM | CC50 (BT-549; [2]): 6820 nM | TGI (BT-549; five dose 0.01–100 µM): 3640 nM | TGI (HS 578 T; HS 578 T, five dose 0.01–100 µM): 6740 nM | GI50 (HS 578 T; Homo sapiens, Hs-578T): 2390 nM | inhibition at 10 µM (HS 578 T; Homo sapiens, Hs-578T, read-out: Percent growth inhibition): 96.6% | CC50 (HS 578 T; Homo sapiens, HS 578 T, five dose 0.01–100 µM, read-out: LC50 (the source's name)): > 1000 nM | GI50 (MCF7; Homo sapiens): 1800 nM | CC50 (MCF7; [2]): > 1000 nM | TGI (MCF7; five dose 0.01–100 µM): 4580 nM | GI50 (MDA-MB-231/ATCC; Homo sapiens, MDA-MB-231): 1290 nM | CC50 (MDA-MB-231/ATCC; Homo sapiens, MDA-MB-231/ATCC, five dose 0.01–100 µM, read-out: LC50 (the source's name)): 7330 nM | TGI (MDA-MB-231/ATCC; MDA-MB-231/ATCC, five dose 0.01–100 µM): 3080 nM | GI50 (MDA-MB-468): 2320 nM | CC50 (MDA-MB-468; read-out: LC50 (the source's name)): > 1000 nM | GI50 (T-47D; Homo sapiens, T47D): 1900 nM | CC50 (T-47D; Homo sapiens, T47D, T-47D, five dose 0.01–100 µM, read-out: LC50 (the source's name)): > 1000 nM | TGI (T-47D; T-47D, five dose 0.01–100 µM): 4690 nM | logP [1]: 1.77
